Measured values taken from publication PMC11397358, “Cytotoxic Activity of Novel GnRH Analogs Conjugated with Mitoxantrone in Ovarian Cancer Cells” (Molecules, 2024).
Like-named read-outs stand apart in the source and are kept apart here.

Legend:
[1] = test system: SKOV-3 cells; experiment: TMRE-based detection of mitochondrial membrane potential (ΔΨm); type: cell-based, human; details: 1 μM, 72 h, fresh compound every 24 h; three independent experiments; p < 0.01 vs untreated
Source text: The apoptosis of SKOV3 cells by Con-3, Con-7 and mitoxantrone was further validated in a mitochondrial membrane potential (ΔΨm) assay, which utilizes the cell-permeable, cationic dye, tetramethylrhodamine ethyl ester (TMRE) to detect the ΔΨm. TMRE accumulates in healthy mitochondria with polarized membrane, but not in the mitochondria of apoptotic cells. Mitochondrial permeabilization and the loss of the mitochondrial transmembrane potential are associated with cell apoptosis and a drop in fluorescence of TMRE [40].
Figure 8 TMRE-based detection of mitochondrial membrane potential (ΔΨm) of SKOV-3 cells. The change in ΔΨm was detected using TMRE after treatment of SKOV3 cells with 1μM Con-3, Con-7 or mitoxantrone for 72 h. The TMRE fluorescence intensities are represented as histogram bars for results obtained in three independent experiments. […] The data are expressed as the mean ± SEM.
The reduced mitochondrial membrane potential (ΔΨm) that accompanies apoptosis was detected using the fluorescent dye, tetramethylrhodamine ethyl ester (TMRE) (Ex/Em: 530/580 nm), (Cayman, TMRE Mitochondrial Membrane Potential Assay Kit, Item No. 701310). SKOV-3 cells were grown on 60 mm tissue culture dishes to achieve ca. 60% confluence. Monolayers of these cells were treated for a total of 72 h using RPMI 1640 containing 1 μM each of Con-3, Con-7 or mitoxantrone. At the end of each consecutive 24 h treatment period, the test solutions were removed and replaced with new media containing fresh test compounds. After 72 h TMRE was added to each dish to a final concentration of 5 μM. After a 30 min exposure to TMRE, the media was removed so that the cell monolayers could be dispersed using 0.25% trypsin-EDTA. The resultant cell suspensions were subjected to centrifugation and repeated resuspension in a standard extracellular salt solution (SES). […] The TMRE fluorescence intensities monitored from the individual wells were measured using a Flexstation 3 microplate reader (Molecular Devices, Sunnyvale, CA, USA).

[2] = test system: SKOV-3 cells; experiment: Cell proliferation (MTT) assay; type: cell-based, human; details: for IC50: Homo sapiens, 0.1 nM–10 µM, medium with 2% BCS, mean ± spread, Con-3 and mitoxantrone n = 3 experiments, Con-7 n = five
Procedure: The antiproliferative effects of GnRH-mitoxantrone conjugates, Con-3, and Con-7, were evaluated using the SKOV-3 cells. The Con-3 and Con-7 conjugates decreased the proliferation rate of SKOV-3 cells in a dose-dependent manner on days 2, 3, and 4 (Figure 3A–C).
Figure 3 Antiproliferative activity of the GnRH analogs. Decrease in the proliferation rate of the SKOV3 cells after their treatment with increasing concentrations of Con-3, Con-7, Con-P1 or Con-P2 for 2 days (A), 3 days (B) and 4 days (C) at 37 °C. At the end of the incubation, the cells were further incubated with 0.5 mg/mL MTT for 4 h at room temperature and the formed purple formazan crystals were quantified by measuring absorbance at 594 nm. The means ± S.E (triplicate determination) are shown from a representative experiment performed 3 times with similar results. The proliferation rates of cells treated with 1 μΜ of GnRH analogs were used to plot the graph D which depicts the decrease in cell growth over the incubation time (D). Statistical analysis was performed using one-way ANOVA.
At the end of the incubation, the cells were further incubated with 0.5 mg/mL MTT for 4 h at room temperature and the formed purple formazan crystals were quantified by measuring absorbance at 594 nm. The means ± S.E (triplicate determination) are shown from a representative experiment performed 3 times with similar results. […] Statistical analysis was performed using one-way ANOVA.
SKOV-3 cells (kindly provided by Prof. Dimitrios Mavroudis, University of Crete) were seeded into 96-well plates at a density of 6000 cells/well, in triplicates, and incubated overnight in Dulbecco’s modified Eagle’s medium/F12 (DMEM/F12) (1:1), containing 3.15 g/L glucose and 10% bovine calf serum (BCS, HyClone), at 37 °C and 5% CO2. At the end of the incubation, the culture medium was replaced with a fresh one containing 3.15 g/L glucose and 2% BCS, with or without increasing concentrations of GnRH analogs or mitoxantrone (0.1 nM–10 µM), and the cells were further incubated at 37 °C and 5% CO2 for 2, 3 and 4 days. Subsequently, (3-(4,5-dimethylthiazol-2-yl)-2,5- diphenyl tetrazolium bromide) (MTT) was added at a final concentration of 0.5 mg/mL, and the mixtures were incubated for 4 h at room temperature in the dark, allowing the viable cells to reduce the MTT to formazan crystals. The supernatants were removed, and the purple formazan crystals were dissolved in isopropanol containing 4% HCl (100 μL/well) by mixing thoroughly for 30 min in the dark, before the quantification of the absorbance at 594 nm using a Dynatech MicroElisa reader (Chantilly, VA, USA). The percentage of the proliferation rate (% proliferation rate) treated with a GnRH analog was determined based on the following equation: % proliferation rate = (absorbance of cells treated with a GnRH analog/absorbance of untreated cells) × 100. The % viability of the untreated cells (control) was defined as 100%. The % viabilities were analyzed by nonlinear regression analysis, using Prism 8.0 (GraphPad Software, Prism 8.0, San Diego, CA, USA).

[3] = target: T1, human GnRH-R (Homo sapiens, UniProt P30968); experiment: Calcium-based (fura-2) kinetic assay of GnRH-R agonism; type: cell-based; details: HEK293 cells transfected with human GnRH-R; fura-2
T1 construct: host or cells: HEK293 (ATCC CRL-1573)
T1 sequence (P30968 1-328): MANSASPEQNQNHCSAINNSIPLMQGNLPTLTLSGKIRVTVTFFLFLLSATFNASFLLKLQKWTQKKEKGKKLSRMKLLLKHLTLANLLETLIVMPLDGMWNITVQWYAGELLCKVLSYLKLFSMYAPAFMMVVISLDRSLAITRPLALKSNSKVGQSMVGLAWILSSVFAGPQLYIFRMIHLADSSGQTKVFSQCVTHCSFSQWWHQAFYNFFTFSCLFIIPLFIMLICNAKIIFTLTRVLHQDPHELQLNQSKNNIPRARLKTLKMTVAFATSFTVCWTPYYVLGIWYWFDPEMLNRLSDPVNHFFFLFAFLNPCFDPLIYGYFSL
Procedure: For this purpose, fura-2-based kinetic assays to monitor the [Ca^2+] were performed in real-time using suspensions of HEK293 cells transiently transfected with the human GnRH-R (Figure 2A–I).
HEK293 cells transfected with the human GnRH-R served as a platform with which to test for agonist actions of individual test compounds. These cells were loaded with the ratiometric Ca^2+ indicator fura-2 so that the change in intracellular [Ca^2+] in response to agonist stimulation could be monitored in real time in a 96-well format. For these assays, the individual test compounds were administered at the 100 s time point.
Two days post-transfection, the HEK293 cells were harvested via trypsinization to obtain single-cell suspensions that were plated at 80% density on rat tail collagen-coated 96-well Costar 3904 plates for loading with the ratiometric Ca^2+ indicator fura-2. Measurements of the intracellular [Ca^2+] were performed using a Flexstation 3 microplate reader (Molecular Devices, Sunnyvale, CA, USA). Briefly, test solutions containing GnRH-R agonists were administered to individual wells of a 96-well plate using the automated pipetting feature of the Flexstation under computer control. […] Emitted light was detected at 505/15 nm, and the ratio of emission light intensity due to excitation at 335/9 and 375/9 nm was calculated. […]

Structure (SMILES) | TMRE accumulation / fluorescence (mitochondrial membrane potential), in words [1] | percentage of the proliferation rate ([2]; 1 μΜ, two days of treatment, untreated cells = 100%) [%] | GnRH-R agonist action (Ca2+ elevation), in words [3] | IC50 ([2]; SK-OV-3, 48 h, 2 days at 37 °C, read-out: IC50, proliferation of SKOV-3 cells, day 2) [nM] | IC50 ([2]; SK-OV-3, 72 h, 3 days at 37 °C, read-out: IC50, proliferation of SKOV-3 cells, day 3) [nM] | IC50 ([2]; SK-OV-3, 96 h, 4 days at 37 °C, read-out: IC50, proliferation of SKOV-3 cells, day 4) [nM]
CCNC(=O)[C@@H]1CCCN1C(=O)[C@H](CCCNC(=N)N)NC(=O)[C@H](CC(C)C)NC(=O)[C@@H](CCCCNC(=O)CCCCCNC(=O)CCSSCC(=O)OCCNCCNc1ccc(NCCNCCO)c2c1C(=O)c1c(O)ccc(O)c1C2=O)NC(=O)[C@H](Cc1ccc(O)cc1)NC(=O)[C@H](CO)NC(=O)[C@H](Cc1c[nH]c2ccccc12)NC(=O)[C@H](Cc1c[nH]cn1)NC(=O)[C@@H]1CCC(=O)N1 [Con-7] | significantly reduced the accumulation of the TMRE | – | – | – | – | –
CCNC(=O)[C@@H]1CCCN1C(=O)[C@H](CCCNC(=N)N)NC(=O)[C@H](CC(C)C)NC(=O)[C@@H](CSSCCC(=O)OCCNCCNc1ccc(NCCNCCO)c2c1C(=O)c1c(O)ccc(O)c1C2=O)NC(=O)[C@H](Cc1ccc(O)cc1)NC(=O)[C@H](CO)NC(=O)[C@H](Cc1c[nH]c2ccccc12)NC(=O)[C@H](Cc1c[nH]cn1)NC(=O)[C@@H]1CCC(=O)N1 [Con-3] | significantly reduced the accumulation of the TMRE | 64.4 | – | – | – | –
O=C1c2c(O)ccc(O)c2C(=O)c2c(NCCNCCO)ccc(NCCNCCO)c21 [mitoxantrone] | significantly reduced the accumulation of the TMRE | – | without effect | 480 ± 210 | 420 ± 90 | 280 ± 60
